Our source for the IC50, selectivity ratio and CC50 values is ChEMBL document CHEMBL4130575, “Sucupiranins A-L, Furanocassane Diterpenoids from the Seeds of Bowdichia virgilioides” (J Nat Prod, 2017).

One data set concerns Plasmodium falciparum. As to the kind of experiment: Antimalarial activity against Plasmodium falciparum K1 infected in human erythrocytes after 72 hrs by lactate dehydrogenase assay. The data set is classed as functional, organism-based. The note with it: K1, 72 h.
The subject of another data set is RAW264.7. As to the kind of experiment: Antiinflammatory activity in mouse RAW264.7 cells assessed as inhibition of LPS-induced nitric oxide production preincubated for 3 hrs followed by LPS challenge measured after 20 hrs by Griess assay. The data set is classed as functional, cell-based.
Data set [1] can be described thus: Selectivity index, ratio of CC50 for human MRC5 cells to IC50 for Plasmodium falciparum K1. The data set is classed as toxicity. The note with it: read-out: Ratio CC50/IC50.
Data set [2] can be described thus: Cytotoxicity against human MRC5 cells assessed as decrease in cell viability after 7 days by MTT assay. The class given is cell-based.
A further data set concerns HeLa. As to the kind of experiment: Cytotoxicity against human HeLa cells after 48 hrs by CCK8 assay. The data set is classed as functional, cell-based.
The test system of a further data set is HL-60. Description: Cytotoxicity against human HL60 cells after 48 hrs by CCK8 assay. The class given is functional, cell-based. As to conditions: HL-60, 48 h. (In general: Tetrazolium dyes change colour on reduction, which living cells bring about.)

Take `CC(=O)OC[C@@]1(C)CCC[C@]2(C)[C@H]3Cc4occc4[C@@](C)(O)[C@@H]3[C@@H](O)[C@H](OC(C)=O)[C@@H]12`: in the data set with Plasmodium falciparum, the IC50 is above 28.8 µM.

`CC(=O)O[C@H]1[C@H](O)[C@@H]2[C@H](Cc3occc3[C@@]2(C)O)[C@@]2(C)CCCC(C)(C)[C@H]12`: the results for the IC50 in the data set with RAW264.7 and in the data set on Plasmodium falciparum were 30.6 µM and 32.2 µM, respectively. In data set [1], the selectivity ratio was determined as 4.3. Further, the CC50 at 168 h in data set [2] stood at 139 µM.

For `COC(=O)[C@@H]1c2ccoc2C[C@H]2[C@H]1[C@@H](OC(C)=O)[C@H](O)[C@H]1[C@](C)(COC(C)=O)CCC[C@]21C`, the IC50 in the data set on Plasmodium falciparum is above 27 µM.

`COC(=O)[C@@H]1c2ccoc2C[C@H]2[C@H]1[C@@H](OC(C)=O)[C@@H]1OC(=O)[C@]3(C)CCC[C@@]2(C)[C@@H]13`: in the data set with Plasmodium falciparum, the half-maximal inhibitory concentration (IC50) was above 30 µM.

`COC(=O)[C@@H]1c2ccoc2C[C@H]2[C@H]1[C@@H](O)[C@H](O)[C@H]1C(C)(C)CCC[C@]21C`: the selectivity ratio in data set [1] was above 12. Further, the CC50 at 168 h in data set [2] is above 276 µM. The compound further registered an IC50 with Plasmodium falciparum of 22.9 µM.

`COC(=O)[C@@H]1c2ccoc2C[C@H]2[C@H]1[C@@H](OC(C)=O)[C@H](O)[C@H]1C(C)(C)CCC[C@]21C` showed an IC50 with Plasmodium falciparum above 30.9 µM.

As to `CC(=O)OC[C@@H]1c2ccoc2C[C@H]2[C@H]1C[C@H](OC(C)=O)[C@H]1C(C)(C)CCC[C@]21C`, the selectivity ratio in data set [1] worked out at 1.9. Also, the CC50 at 168 h in data set [2] stood at 44.1 µM. In addition, the IC50 in the data set on Plasmodium falciparum was determined as 23.5 µM; in the data set with HeLa it was 32.2 µM; in the data set with HL-60, 32.6 µM.

The compound `COC(=O)[C@@H]1c2ccoc2C[C@H]2[C@H]1[C@@H](O)[C@H](O)[C@H]1[C@](C)(CO)CCC[C@]21C` gave an IC50 with HL-60 of 9.8 µM.

`COC(=O)[C@@H]1c2ccoc2C[C@H]2[C@H]1[C@@H](OC(C)=O)[C@H](O)[C@@H]1[C@]2(C)CCC[C@@]1(C)C(=O)OC` returned an IC50 in the data set with Plasmodium falciparum above 27.9 µM.

In the data set with Plasmodium falciparum, `COC(=O)[C@@H]1c2ccoc2C[C@H]2[C@H]1[C@@H](O)[C@H](OC(C)=O)[C@H]1C(C)(C)CCC[C@]21C` gave an IC50 above 30.9 µM.

In turn, `C[C@@H]1CC[C@H]2[C@@H](C)C(=O)O[C@@H]3O[C@@]4(C)CC[C@@H]1[C@]32OO4` [ARTEMISININ] gave an IC50 in the data set with Plasmodium falciparum of 0.025 µM.

By IC50 is commonly meant the midpoint of a concentration-inhibition curve. A word on the CC50: it is the concentration at which the toxic effect on the cells reaches its halfway point.
